Measured values as given in patent publication US6649623B1, “Cyclic amine derivatives and use thereof” (Shionogi & Co., Ltd., priority 1999, dated 2003).
Where two headings read alike, the source gives them in different places.

Legend:
[1] = test system: KK-Ay mouse; assay: 7-day subcutaneous administration to KK-Ay mouse: body weight, food intake, blood glucose and insulin; assay type: in vivo; settings: 80 mg/kg s.c. for 7 days; for response vs control in vivo at 80 mg/kg: sc, 192 h, male KK-Ay mouse, average; for food intake (in words): KK-Ay mouse
Method: After 80 mg/kg of the present compound was administered subcutaneously for 7 days to 7-8 week aged male KK-Ay mouse (n=5˜7, CLEA JAPAN, INC), the amount of food intake from seventh day to eighth day, and body weight of eighth day were measured. For a control group, physiological saline was used. After the body weight was measured, the blood was collected from abdominal aorta by a syringe containing 50 U heparin and centrifuged 12,000×g for five min. Glucose in blood was measured by New Blood.Sugar.Test (Boehringer Ingelheim) and insulin was measured by Insulin-EIA Test (GLAOZYME). Each value is an average value and represented by percent to each value of eighth days in the control group. As to the compounds of and after Example 13, each corresponding hydrochloride was used.

[2] = test system: KK-Ay mouse; assay: Plasma leptin concentration in KK-Ay mouse (mouse leptin RIA kit); assay type: in vivo; settings: 40 mg/kg s.c., after 24 hours, saline group 26.7±1.9 ng/ml
Method: The compound 3cs of Example 3 (40 mg/kg ) was administered subcutaneously to KK-Ay mouse. After 24 hours, the concentration of leptin in plasma was measured by using mouse leptin RIA measuring kit (Linco). The blood was collected from abdominal aorta by a syringe containing 50 U heparin and centrifuged 12,000×g for 5 min to give plasma.

[3] = body weight of eighth day, percent to value of control group (physiological saline), read-out: Body weight
[4] = food intake from seventh to eighth day, percent to value of control group, read-out: Food intake
[5] = glucose in blood on eighth day, percent to value of control group, read-out: Glucose
[6] = insulin in blood on eighth day, percent to value of control group, read-out: Insulin

Row | Structure (SMILES) | response vs control in vivo at 80 mg/kg [1, 3] [%] | response vs control in vivo at 80 mg/kg [1, 4] [%] | response vs control in vivo at 80 mg/kg [1, 5] [%] | response vs control in vivo at 80 mg/kg [1, 6] [%] | food intake (in words) [1] | concentration of leptin in plasma [2] [ng/mL]
1 | Fc1ccc(OCCCN2CC=CCC2)c(F)c1 [Example 1, 1-[3-(2,4-Difluoro-phenoxy)-propyl]-1,2,3,6-tetrahydro-pyridine] | 85 | 76 | 56 | 12 |  | 
2 | Brc1ccc(OCCCN2CC=CCC2)c(Br)c1 [Example 2, 1-[3-(2,4-Dibromo-phenoxy)-propyl]-1,2,3,6-tetrahydro-pyridine] | 93 | 100 | 79 | 41 | little repressed | 
3 | Clc1ccc(OCCCN2CC=CCC2)cc1Cl [Example 3, 1-[3-(3,4-Dichloro-phenoxy)-propyl]-1,2,3,6-tetrahydro-pyridine] | 84 | 82 | 73 | 49 | little repressed | 44.8 ± 5.2
4 | Clc1cccc(OCCCN2CC=CCC2)c1 [Example 4, 1-[3-(3-Chlorophenoxy)-propyl]-1,2,3,6-tetrahydro-pyridine] | 87 | 79 | 84 | 47 |  | 
5 | COc1cccc(OCCCN2CC=CCC2)c1 [Example 5, 1-[3-(3-Methoxy-phenoxy)-propyl]-1,2,3,6-tetrahydro-pyridine] | 94 | 88 | 62 | 38 |  | 
6 | Clc1ccc(OCCCN2CC=CCC2)c(Cl)c1 [Example 6, 1-[3-(2,4-Dichloro-phenoxy)-propyl]-1,2,3,6-tetrahydro-pyridine] | 85 | 84 | 76 | 32 | little repressed | 
7 | Clc1ccc(OCCCN2CC=CCC2)c(Cl)c1Cl [Example 7, 1-[3-(2,3,4-Trichloro-phenoxy)-propyl]-1,2,3,6-tetrahydro-pyridine] | 83 | 78 | 72 | 51 |  | 
8 | Clc1ccc(COCCCN2CC=CCC2)cc1Cl [Example 8, 1-[3-(3,4-Dichloro-benzyloxy)-propyl]-1,2,3,6-tetrahydro-pyridine] | 94 | 96 | 78 | 31 |  | 
9 | Clc1ccc(OCCN2CC=CCC2)cc1Cl [Example 9, 1-[2-(3,4-Dichloro-phenoxy)-ethyl]-1,2,3,6-tetrahydro-pyridine] | 87 | 83 | 71 | 53 |  | 
10 | Clc1ccc(OCCCCN2CC=CCC2)cc1Cl [Example 10, 1-[4-(3,4-Dichloro-phenoxy)-butyl]-1,2,3,6-tetrahydro-pyridine] | 94 | 82 | 87 | 31 |  | 
11 | Clc1ccc(NCCCN2CC=CCC2)cc1Cl [Example 11, (3,4-Dichlorophenyl)-[3-(3,6-dihydro-2-H-pyridin-1-yl)propyl]-amine] | 94 | 92 | 93 | 74 |  | 
12 | C1=CCN(CCCOc2ccc3sccc3c2)CC1 [Example 17] | 94 | 84 | 99 | 84 |  | 
13 | Clc1cc(Cl)cc(OCCCN2CC=CCC2)c1 [Example 21] | 89 | 74 | 80 | 53 |  | 
14 | Cc1cc(OCCCN2CC=CCC2)ccc1F [Example 23] | 89 | 76 | 67 | 91 |  | 
15 | Cc1ccc(OCCCN2CC=CCC2)c(Cl)c1 [Example 25] | 90 | 73 | 58 | 63 |  | 
16 | Cc1ccc(OCCCN2CC=CCC2)cc1C [Example 27] | 93 | 77 | 87 | 42 |  | 
17 | Brc1ccc(-c2ccc(OCCCN3CC=CCC3)cc2)cc1 [Example 30] | 95 | 73 | 62 | 50 |  | 
18 | Fc1ccc(OCCCN2CC=CCC2)cc1F [Example 32] | 92 | 85 | 73 | 69 |  | 
19 | FC(F)(F)c1ccc(COc2ccc(OCCCN3CC=CCC3)cc2Cl)cc1 [Example 33] | 93 | 72 | 54 | 44 |  | 
20 | Fc1cccc(F)c1OCCCN1CC=CCC1 [Example 36] | 86 | 75 | 61 | 54 |  | 
21 | FC(F)(F)c1cccc(OCCCN2CC=CCC2)c1 [Example 39] | 95 | 78 | 70 | 52 |  | 
22 | FC(F)(F)c1cc(OCCCN2CC=CCC2)cc(C(F)(F)F)c1 [Example 41] | 88 | 77 | 56 | 48 |  | 
23 | FC(F)(F)c1ccc(Oc2ccc(OCCCN3CC=CCC3)cc2)cc1 [Example 44] | 82 | 59 | 54 | 21 |  | 
24 | Cc1ccc(F)c(OCCCN2CC=CCC2)c1 [Example 45] | 94 | 82 | 79 | 70 |  | 
25 | Fc1cc(F)c(OCCCN2CC=CCC2)c(F)c1 [Example 46] | 90 | 91 | 58 | 53 |  | 
26 | CC(C)(C)c1cccc(OCCCN2CC=CCC2)c1 [Example 49] | 91 | 80 | 56 | 73 |  | 
